Several values for one entry are separate records, joined by “and”; a condition that tells them apart may be missing. Identical values can stand only once.
Columns and labels:
Assay type in all cases: cell-based
[1] = system: CHRM1; experiment: Cellular Redistribution Assay (CRA) against CHRM1; details: FIG. 5B
From the text: (§1) The inventors used a CRA similar to that described in U.S. Pat. No. 7,309,576 and O'Dowd et al., J. Biomol. Screen. 12:175-85, 2007 to identify compounds that are capable of interacting with GPR174 using a library of approximately 370,000 chemical entities. Briefly described, the CRA assay described in U.S. Pat. No. 7,309,576 involves artificially inserting a NLS into the dopamine D1 receptor (DRD1), which allows the receptor to traffic from the cell membrane to the cell interior, and that the binding of antagonists to the receptor retained the receptor at the cell surface, while removal of the ligand allowed the receptor to continue to internalize from the cell surface. Both antagonists and agonists that selectively bound the receptor retained the receptor on the plasma membrane. GPR174 constructs were generated for use in a CRA-based compound screening assay. From this screen, the inventors initially identified compounds of formula I-VI, as described herein and included in TABLE 1.
The inventors also sought to validate that the compounds identified using the CRA are modulatory compounds. To this end, the above-described CRA was used to screen a library for compounds that interact with three control non-orphan receptors, and the results of this screen were compared to the results of screening the same library for compound that were identified using a Fluorometric Imaging Plate Reader (FLIPR) assay, a conventional technique commonly used to identify compounds interacting with non-orphan GPCRs signaling through Ca+. Three non-orphan GPCRs—Muscarinic acetylcholine receptor M1 (CHRM1), Adrenergic receptor alpha 1a (ADRA1a), and Neuropeptide S receptor (NPSR)—were screened against a 10,000-compound GPCR-focused library. Thirty interacting compound “hits” were identified using the CRA, and eighty-one hits were identified using the FLIPR for the CHRM1 receptor; 9 CRA hits and 29 FLIPR hits for the NPS receptor were identified; and 110 CRA hits and 110 FLIPR hits for ADRA1a.
In addition, the CRA can also provide the relative potencies of compounds against the target receptor.

[2] = molecular target: T1, GPR174 (Homo sapiens, UniProt Q9BXC1); experiment: CRE-Luc reporter Gs signaling assay, cells transfected with GPR174; set-up: host or cells: HEK293 or CHO cell lines (ATCC); details: for effect on Gs pathway in the presence of GPR174: CRE-Luc reporter; for nature of compound in GPR174 signaling assay: human GPR174 with pCRE-Luc
Description: (§2) Compounds were tested in the reporter system with increasing concentrations of GPR174-interacting compounds. GPR174 construct pCMV6-XL4-GPR174 or ADBR2, reporter of interest, pCRE-Luc or GL4.29 (3000 ng), and TK-renilla as an internal control (10 ng) with lipofectamine 2000 (60 ug) (Invitrogen, CA) according to the manufacturer's directions.
(§3) The DNA/lipofectamine 2000 mix (3000 μL) was incubated at room temperature for 30 minutes and then added into a 10 cm culture dish (Corning, NY) containing 70-90% confluent cultured cells, typically HEK293 or CHO cell lines (ATCC, VA), in 15 mL of media. The cells were further incubated for 4-6 hours at 37° C. and then media were removed and cells were detached with 2 mL trypsin (Life Technologies, CA). Media (26 mL) were added to the detached cells and 120 μL of transfected cells were transferred to each well on a 96-well plate. Increasing concentration of each compound in DMSO (1.2 μl) was added to the cells after plating into the 96-well plate. The cells were further incubated at 37° C. for various times. The media were removed and the cells lysed. Luciferase and renilla activities were measured with the Dual-luciferase assay system (Promega, WI) according to the manufacturer's directions. Typically, lysis buffer (25 μL) was added to the cells and incubated at room temperature for 20-30 minutes to allow for the cells to lyse. The lysate (10 μL) was measured for luciferase and renilla activity with LARII and Stop&Glo reagent (50 μL each) with a SpectraMax L (Molecular Devices, CA). Data were analyzed with either Excel (Microsoft, WA) or Prism 4.03 (GraphPad, CA).
(§4) ADBR2 is a GPCR, like GPR174, that activates the Gs signaling pathway.
Target sequence in this assay (Q9BXC1 whole entry): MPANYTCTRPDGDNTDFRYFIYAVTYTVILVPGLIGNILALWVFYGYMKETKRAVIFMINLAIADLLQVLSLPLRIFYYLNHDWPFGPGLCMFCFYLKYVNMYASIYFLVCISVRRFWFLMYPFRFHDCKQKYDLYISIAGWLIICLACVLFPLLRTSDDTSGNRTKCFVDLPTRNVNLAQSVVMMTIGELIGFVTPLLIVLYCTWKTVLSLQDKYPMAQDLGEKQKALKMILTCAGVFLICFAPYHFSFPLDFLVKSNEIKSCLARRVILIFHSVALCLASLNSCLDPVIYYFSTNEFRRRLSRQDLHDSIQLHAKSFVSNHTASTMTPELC

[3] = molecular target: T1, GPR174; experiment: Cellular Redistribution Assay (CRA) against GPR174; set-up: fused on or other part: No tag or reporter is given; details: for dose-response in CRA against GPR174: FIG. 5A; for EC50: multiple values = separate experiments
From the text: One method for identifying compounds capable of modulating a receptor is using a cellular redistribution assay (“CRA”). Exemplary CRA methods are found in U.S. Pat. No. 7,309,576 issued to O'Dowd et al. and in O'Dowd et al., J. Biomol. Screen. 12:175-85, 2007. […] Incorporation of the NLS alters the cellular localization of the GPCR, such that the majority of the NLS-modified receptor is present in the cell interior. An NLS-modified GPCR, when interacting with a functionally active compound, is mostly localized on the cell surface. Thus, it becomes possible to identify receptor modulators without knowledge of the endogenous ligand or a surrogate ligand.
The inventors have identified a number of compounds that inhibit GPR174 using a CRA assay similar to that described in U.S. Pat. No. 7,309,576 and in O'Dowd et al., J. Biomol. Screen. 12:175-85, 2007. These compounds are described in detail below.
as §1
Target sequence in this assay (Q9BXC1 1-290 limits assumed): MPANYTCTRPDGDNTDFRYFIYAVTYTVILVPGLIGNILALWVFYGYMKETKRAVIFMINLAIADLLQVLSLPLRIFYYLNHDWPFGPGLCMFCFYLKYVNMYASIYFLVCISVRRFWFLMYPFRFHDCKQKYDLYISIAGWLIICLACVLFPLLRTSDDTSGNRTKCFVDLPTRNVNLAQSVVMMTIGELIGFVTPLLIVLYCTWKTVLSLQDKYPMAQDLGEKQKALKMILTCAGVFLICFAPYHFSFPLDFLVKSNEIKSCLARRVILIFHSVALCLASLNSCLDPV

[4] = system: human PBMCs; experiment: Cytokines in culture supernatants of stimulated human PBMCs (ELISA / LEGENDplex); details: data not shown
Description: The effect of compound #10 on IL-2 and IFN-γ production in human PBMCs was determined as follows. PBMCs from a single donor were adjusted to a density of 2×10^6 cells/mL, stimulated with 100 ng/mL of anti-CD3 and 100 ng/mL of anti-CD28 antibodies and treated with 1 μM, 3 μM, or 10 μM of compound #10. Supernatant from these cells was taken on day 2 post-stimulation and the levels of IL-2 and IFN-γ were determined by ELISA assay using Ready-SET-Go ELISA kits from Affimetrix Ebioscience according to the manufacturer's instructions.
The effect of compound #10 on IL-2 production in human PBMCs was determined as follows. […] Supernatant from these cells was taken on day 3 post-stimulation and the levels of IL-2 were determined by ELISA assay using Ready-SET-Go™ ELISA kits from Affimetrix Ebioscience and LEGENDplex™ bead-based immunoassays from BioLegend according to the manufacturer's instructions.
The effect of compound #10 on IL-2 production in human PBMC from each donor was determined as follows. PBMC from each donor were adjusted to a density of 2×10^6 cells/mL, stimulated with 100 ng/mL of anti-CD3 and 100 ng/mL of anti-CD28 antibodies and treated with 30 μM compound #10. Supernatant from these cells was taken on day 2 post-stimulation and the levels of IL-2 were determined by ELISA assay using LEGENDplex™ bead-based immunoassays from BioLegend (San Diego, CA) according to the manufacturer's instructions.
The effect of compound #10 on the production of a panel of additional cytokines (interleukin 5 (IL-5), interleukin 13 (IL-13), interleukin 6 (IL-6), interleukin 9 (IL-9), interleukin 10 (IL-10), interferon gamma (IFN-γ), tumor necrosis factor alpha (TNF-α), interleukine 17A (IL-17A), interleukin 17F (IL-17F), interleukin 4 (IL-4) and interleukin 22 (IL-22)) in pooled human PBMC obtained from eight donors was determined as follows. PBMC from eight donors were pooled, then adjusted to a density of 2×10^6 cells/mL, stimulated with 100 ng/mL of anti-CD3 and 100 ng/mL of anti-CD28 antibodies and treated with 30 μM compound #10. Supernatant from these cells was taken on day 2 post-stimulation and the levels of IL-5, IL-13, IL-6, IL-9, IL-10, IFN-γ, TNF-α, IL-17A, IL-17F, IL-4 and IL-22 were determined by ELISA using LEGENDplex™ bead-based immunoassays from BioLegend (San Diego, CA) according to the manufacturer's instructions.

[5] = molecular target: T2, ADBR2 (Homo sapiens, UniProt P07550); experiment: CRE-Luc reporter Gs signaling assay, control receptor ADBR2
T2 construct: host or cells: HEK293 or CHO cell lines (ATCC)
Description: as §2, §3, §4

T2 sequence (P07550 whole entry): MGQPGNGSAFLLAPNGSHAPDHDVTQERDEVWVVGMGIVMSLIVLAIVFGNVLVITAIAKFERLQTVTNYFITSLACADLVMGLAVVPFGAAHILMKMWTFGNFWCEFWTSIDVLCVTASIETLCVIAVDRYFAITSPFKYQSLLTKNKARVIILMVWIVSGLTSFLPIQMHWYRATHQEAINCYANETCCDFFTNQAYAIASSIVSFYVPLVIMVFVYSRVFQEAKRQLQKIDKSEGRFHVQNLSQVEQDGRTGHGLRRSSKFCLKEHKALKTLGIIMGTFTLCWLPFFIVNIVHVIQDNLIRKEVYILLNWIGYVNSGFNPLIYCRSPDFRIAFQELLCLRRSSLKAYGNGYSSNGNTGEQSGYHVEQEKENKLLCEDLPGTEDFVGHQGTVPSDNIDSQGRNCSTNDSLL

Row | SMILES | Human GPR174 CRE Activity: nature of compound [2] | effect on Gs pathway in the presence of GPR174 [2] | effect on Gs pathway in the presence of ADBR2 [5] | nature of compound in GPR174 signaling assay [2] | also measured
1 | CC(=O)c1ccc(N2CCN(C(=O)c3ccc(F)cc3)CC2)c(F)c1 [Compound 3] | Antagonist or allosteric modulator |  |  |  | activity in CRA against CHRM1 [1]: do not show any activity against CHRM1; dose-response in CRA against GPR174 [3]: show a dose-response curve against GPR174
2 | O=C(c1ccccc1)N1CCN(c2cc(N3CCCCC3)c(F)cc2[N+](=O)[O-])CC1 [Compound 6] |  | inhibited the Gs pathway | did not inhibit the Gs pathway |  | IL-2 levels in PBMC cultures [4]: increased IL-2 levels
3 | CCOC(=O)N1CCN(c2cc(N3CCCCC3)c(F)cc2[N+](=O)[O-])CC1 [Compound 7] |  | inhibited the Gs pathway | did not inhibit the Gs pathway |  | 
4 | O=[N+]([O-])c1cc(F)c(N2CCCCC2)cc1N1CCN(S(=O)(=O)c2ccccc2)CC1 [Compound 11] |  | inhibited the Gs pathway | did not inhibit the Gs pathway |  | EC50 [3]: 1.5 µM
5 | CC1CCN(c2cc(N3CCN(C(=O)c4cccs4)CC3)c([N+](=O)[O-])cc2F)CC1 [Compound 12] |  |  |  |  | EC50 [3]: 0.3 µM
6 | Cc1ccc(-c2nnc(Nc3ccccc3)c3ccccc23)cc1S(N)(=O)=O [Compound 19] | Antagonist or allosteric modulator | did not modulate the Gs pathway | did not modulate the Gs pathway | non-modulators | 
7 | Cc1ccccc1Nc1nnc(-c2ccc(C)c(S(N)(=O)=O)c2)c2ccccc12 [Compound 20] | Antgonist or allosteric modulator |  |  | non-modulators | activity in CRA against CHRM1 [1]: do not show any activity against CHRM1; dose-response in CRA against GPR174 [3]: show a dose-response curve against GPR174
8 | Cc1cc(Cc2ccc(NC(=O)c3cccs3)c(C)c2)ccc1NC(=O)c1cccs1 [Compound 21] | Antagonist or allosteric modulator | did not modulate the Gs pathway | did not modulate the Gs pathway | non-modulator | 
9 | COc1ccc(C2C3=C(CCCC3=O)NC3=C2C(=O)c2ccccc23)cc1 (centres unmarked) [Compound 22] |  | inhibited the Gs pathway | did not inhibit the Gs pathway |  | EC50 [3]: 6.7 µM and 5.3 µM
10 | CCOc1ccc(C2C3=C(CCCC3=O)NC3=C2C(=O)c2ccccc23)cc1 (centres unmarked) [Compound 23] |  | inhibited the Gs pathway | did not inhibit the Gs pathway |  | 
11 | CCCCOc1ccc(C2C3=C(CCCC3=O)NC3=C2C(=O)c2ccccc23)cc1 (centres unmarked) [Compound 31] |  | inhibited the Gs pathway | did not inhibit the Gs pathway |  | 
12 | O=C1CCCC2=C1C(c1ccc(OCCO)cc1)C1=C(N2)c2ccccc2C1=O (centres unmarked) [Compound 33] |  | inhibited the Gs pathway | did not inhibit the Gs pathway |  | 
13 | O=C1CCCC2=C1C(c1ccc3c(c1)OCCO3)C1=C(N2)c2ccccc2C1=O (centres unmarked) [Compound 36] |  | inhibited the Gs pathway | did not inhibit the Gs pathway |  | 
14 | O=C1CCCC2=C1C(c1ccncc1)C1=C(N2)c2ccccc2C1=O (centres unmarked) [Compound 42] |  | inhibited the Gs pathway | did not inhibit the Gs pathway |  | 
15 | C=C(C)COc1ccc(NC(=O)Nc2ccccc2)cc1 [Compound 56] |  |  |  | inverse agonist | 
16 | O=C(N/N=C/c1cc(Cl)ccc1O)c1ccncc1 [Compound 57] | Antagonist or allosteric modulator |  |  | GPR174 antagonists or allosteric modulators | EC50 [3]: 5.6 µM
17 | Cc1cc(C(=O)N/N=C/c2cc(Br)ccc2O)c(C)o1 [Compound 58] | Antagonist or allosteric modulator |  |  | GPR174 antagonists or allosteric modulators | EC50 [3]: 3.7 µM

Reference: patent publication US20230321083A1, “Inhibitors of GPR174 and Uses Thereof” (Omeros Corporation, priority 2016, published 2023)
